Measurements reported in PMC6152678, “In Vitro Comparative Study of the Inhibitory Effects of Mangiferin and Its Aglycone Norathyriol towards UDP-Glucuronosyl Transferase (UGT) Isoforms” (Molecules : A Journal of Synthetic Chemistry and Natural …, 2017).

How the values were obtained:
[1] = target: T1, UGT1A3 (Homo sapiens, UniProt P35503); assay: Inhibition of recombinant UGT-catalyzed 4-MU glucuronidation; assay type: biochemical; conditions: for inhibition at 120 min, 100 µM: human, pH 7.4, probe 4-methylumbelliferone (4-MU), 1200 μM, 100 μM compound, 4-MU probe substrate, negative = activation
T1 construct: purchased BD Gentest Corp. (Woburn, MA, USA); host or cells: baculovirus-infected insect cells
T1 sequence (P35503 29-534): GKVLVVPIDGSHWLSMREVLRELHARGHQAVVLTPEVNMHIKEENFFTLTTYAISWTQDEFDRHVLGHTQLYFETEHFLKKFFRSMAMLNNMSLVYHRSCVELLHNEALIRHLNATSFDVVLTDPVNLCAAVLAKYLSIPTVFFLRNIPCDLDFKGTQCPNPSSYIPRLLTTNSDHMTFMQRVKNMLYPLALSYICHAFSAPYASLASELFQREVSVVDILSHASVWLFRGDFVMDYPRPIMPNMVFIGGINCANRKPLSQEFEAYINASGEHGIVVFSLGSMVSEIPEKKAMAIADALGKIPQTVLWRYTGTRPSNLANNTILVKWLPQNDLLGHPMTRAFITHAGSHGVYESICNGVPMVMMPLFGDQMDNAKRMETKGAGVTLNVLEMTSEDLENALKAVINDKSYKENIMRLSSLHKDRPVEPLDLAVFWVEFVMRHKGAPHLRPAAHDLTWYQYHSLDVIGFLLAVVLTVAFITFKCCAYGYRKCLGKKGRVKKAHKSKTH

[2] = target: T2, UGT1A7 (Homo sapiens, UniProt Q9HAW7); assay: as above; assay type: biochemical; conditions: for inhibition at 30 min, 100 µM: human, pH 7.4, probe 4-methylumbelliferone (4-MU), 30 μM, 100 μM compound, 4-MU probe substrate, negative = activation
T2 construct: purchased BD Gentest Corp. (Woburn, MA, USA); host or cells: baculovirus-infected insect cells
T2 sequence (Q9HAW7 26-530): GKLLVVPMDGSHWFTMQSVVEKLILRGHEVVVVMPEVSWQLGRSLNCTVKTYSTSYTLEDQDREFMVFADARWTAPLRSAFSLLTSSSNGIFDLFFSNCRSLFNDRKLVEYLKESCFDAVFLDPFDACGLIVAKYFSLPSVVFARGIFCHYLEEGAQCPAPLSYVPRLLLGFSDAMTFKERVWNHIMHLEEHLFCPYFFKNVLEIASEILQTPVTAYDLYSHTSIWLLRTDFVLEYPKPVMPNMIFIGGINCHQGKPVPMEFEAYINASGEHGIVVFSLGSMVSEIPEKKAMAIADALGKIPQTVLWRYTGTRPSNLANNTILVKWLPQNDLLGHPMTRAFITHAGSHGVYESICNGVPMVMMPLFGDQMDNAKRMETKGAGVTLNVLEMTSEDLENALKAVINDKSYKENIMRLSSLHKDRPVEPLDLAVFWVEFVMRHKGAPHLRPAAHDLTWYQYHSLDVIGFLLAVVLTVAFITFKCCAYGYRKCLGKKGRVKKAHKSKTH

[3] = Dixon plot and Lineweaver-Burk plot

In the case of `O=c1c2cc(O)c(O)cc2oc2cc(O)c([C@@H]3O[C@H](CO)[C@@H](O)[C@H](O)[C@H]3O)c(O)c12` [MGF, 1,3,6,7-tetrahydroxyxanthone-C-2-β-D-glucoside], the inhibition at 120 min, 100 µM [1] is reported as -16% and the inhibition at 30 min, 100 µM [2] is reported as 26.7%.

For `O=c1c2cc(O)c(O)cc2oc2cc(O)cc(O)c12` [NTR, 1,3,6,7-tetrahydroxyxanthone], the IC50 ([1]; 4-MU glucuronidation, Probit analysis, read-out: IC50 towards UGT1A3) was 8.2 µM, the “inhibition type towards UGT1A3” value [1, 3] was “competitively inhibited” and the inhibition at 120 min, 100 µM [1] was 87.6%. The Ki ([1]; second plot of Lineweaver-Burk slopes, read-out: inhibition constant (Ki) towards UGT1A3) was 1.6 µM, the IC50 ([2]; 4-MU glucuronidation, Probit analysis, read-out: IC50 towards UGT1A7) was 4.4 µM and the “inhibition type towards UGT1A7” value [2, 3] was “competitively inhibited”. The inhibition at 30 min, 100 µM [2] was 94.9% and the Ki ([2]; second plot of Lineweaver-Burk slopes, read-out: inhibition constant (Ki) towards UGT1A7) was 2 µM.
